# Laboratory results: patent US20250261637A1, “DISINFECTANT COMPOSITIONS AND METHODS THEREOF” (HALOMINE INC., priority 2022, published 2025)
# Legend:
# [1] = Chlorine stability of chlorinated HA and HASA55 solutions over 10 weeks (available chlorine, DPD); type: physicochemical
# Description: (§1) Various aqueous electrophilic halogen solutions were used to dissolve HASA55 powder. Undiluted disinfexol stock solution was used as HOCl source, Clorox® germicidal bleach diluted 1:48 volumetrically was used as a NaOCl source, and a stock solution of Purtab prepared by dissolving 1 tablet in a quart of water was used as a NaDCC source. Various samples of HASA55 solutions chlorinated with HOCl, NaOCl, and NaDCC were prepared by dissolving HASA55 in the electrophilic halogen source solutions at stoichiometric molar ratios of 2:1, 1:1, 1:2, 1:4, and 1:8 HASA55:electrophilic halogen source for HOCl and NaOCl, and at stoichiometric molar ratios of 4:1, 2:1, 1:1, 1:2, and 1:4 HASA55:NaDCC. Various samples of HA monomers chlorinated with HOCl, NaOCl, and NaDCC were prepared by dissolving HA monomer in the electrophilic halogen source solutions at stoichiometric molar ratios of 2:1, 1:1, 1:2, 1:3, and 1:6 HA:electrophilic halogen source for HOCl and NaOCl, and at stoichiometric molar ratios of 4:1, 2:1, 1:1, 1:1.5, and 1:3 for HA:NaDCC. The resulting solutions were sealed and stored in air-tight bottles to assess the amount of available chlorine and the pH of the solution over time. Available chlorine concentrations were calculated according to a spectrophotometric method using a DPD indicator as detailed above and pH was calculated using a pH meter.
# [2] = pH of chlorinated HA and HASA55 solutions over time; type: physicochemical; conditions: HOCl series, 10 weeks
# Description: as §1
# [3] = tested on: S. aureus; test: MIC testing of chlorinated HASA; type: cell-based, Staphylococcus aureus; conditions: for MIC: Staphylococcus aureus
# Description: (§2) NaDCC, NaOC, HOC, and HASA-Cl solutions were prepared at chlorine concentrations of 300, 250, 200, 150, 100, and 50 ppm and mixed with a S. aureus suspension containing […] as an organic load for 30 seconds. After 30 seconds, the mixtures were neutralized with Na2S2O3 to quench oxidative chlorine, added to tryptic soy broth (TSB), and incubated (e.g., for 48 hours at 37° C.). Following the incubation, samples were assessed for S. aureus growth inhibition to determine the minimum inhibitory concentration (MIC). […] To determine the minimum biocidal concentration (MBC), samples were plated on agar and viable colonies counted. […] The analysis was run in duplicate with a 8.34 log inoculum concentration of S. aureus in the first analysis and a 8.37 log inoculum concentration of S. aureus in the second analysis.
# (§3) NaDCC, NaOCl, HOC, and HASA-Cl solutions were prepared at chlorine concentrations of 800, 700, 600, 500, 400, 300, 200, and 100 ppm and mixed with a suspension of S. aureus containing 10% FBS or 15% as an organic load and reacted for 1 minute or 5 minutes. After reacting, the mixtures were neutralized with Na2S2O3 to quench oxidative chlorine, added to tryptic soy broth (TSB), and incubated (e.g., for 48 hours at 37° C.). Following the incubation, samples were assessed for S. aureus growth inhibition to determine the MIC. […] To determine the MBC, samples were plated on agar and viable colonies counted. […] The analysis was run in duplicate with a 8.23 log inoculum concentration of S. aureus.
# (§4) Three solutions of HASA-Cl (HASA-Cl_D, HASA-Cl_E, and HASA-Cl_F) were prepared by chlorinating HASA55 in aqueous HOCl at varying HASA55:chlorine stoichiometric molar ratios, isolating the chlorinated HASA55-Cl polymer, and dissolving the chlorinated polymer in water. The three HASA-Cl solutions and HASA-HOCl, NaDCC, NaOCl, and HOCl solutions were diluted to chlorine concentrations of 300, 250, 200, 150, 100, and 50 ppm, mixed with a suspension of S. aureus with 5% FBS organic load, and reacted for 30 seconds. After reacting, the mixtures were neutralized to remove oxidative chlorine, added to tryptic soy broth, and incubated (e.g. for 48 hours at 37° C.). Following the incubation, samples were assessed for S. aureus growth inhibition to determine the MIC. To determine the MBC, samples were plated on agar and viable colonies counted. […] The analysis was run in duplicate with a 8.34 log inoculum concentration of S. aureus in the first experiment and a 8.37 log inoculum concentration of S. aureus in the second experiment.
# [4] = tested on: S. aureus; test: MBC testing of chlorinated HASA; type: cell-based, Staphylococcus aureus; conditions: for MBC: Staphylococcus aureus
# Description: as §2, §3, §4
# [5] = Residual chlorine content of dried chlorinated N-halamine coatings on SS304 coupons; type: physicochemical; conditions: for Estimated residual Cl (%): SS304 coupon
# Description: HASA-Cl solutions were prepared according to procedures detailed in EXAMPLE 6 above. Stainless steel 304 (SS304) coupons with a dimension of 1″×1″ and thickness of 0.024″ were scrubbed with a sponge and 1% detergent (e.g., Liquinox®), rinsed with deionized water, and dried. To the dried SS304 coupons, a 1 mL sample of a HASA-Cl, HA-Cl, or electrophilic halogen solution was pipetted using a micropipette without rinsing or wiping the coupon after pipetting. The sample coupons coated with HASA-Cl HA-Cl, and electrophilic halogen sources, were stored at ambient temperature and humidity with indoor light exposure. […] HASA/HOCl solutions with high stoichiometric molar amounts of HASA (2:1 HASA:HOCl and 1:1 HASA:HOCl) formed coatings with a flaked dried polymer appearance, while the other solutions formed coatings with a stain-like appearance with a majority of the SS304 base substrate exposed.
# To extract chlorine from the surface of a SS304 sample coupon, a sample coupon was added to a centrifuge tube containing 20 mL of deionized water, 200 mg of K1, and 10 drops of 4N acetic acid. The mixture containing the sample coupon was mixed by shaking (e.g. at 120 rpm for 10 minutes), and solution removed and added to a glass sample cell for analysis by spectrophotometry with a DPD indicator according to the procedure detailed above. The amount of chlorine was calculated against a chlorine standard curve. Chlorine density was calculated according to the following formula: […]
# The bars are presented in the order Day 1, Day 2, Day 3, Day 7, and Day 28. […] At 28 days, the chlorine density of HASA/HOCl and HA/HOCl solutions decreased, to around half of the Day 1 chlorine density. […] Estimated residual chlorine percentages were calculated from the ratio of the amount of chlorine retrieved from the dried coating over the amount of chlorine deposited in the 1 mL solution. TABLE 19 summarizes the estimated residual chlorine percentages of HA/HOCl and HASA/HOCl solutions over the 28 days. Estimated residual chlorine percentages were stable for up to 1 week for HASA/HOCl solutions with stoichiometric molar ratios of HASA:HOCl higher than 1:2, aligning with the chlorine density data.
# [6] = 5% FBS organic load, 30 seconds (Table 18)
# [7] = Exp 1, 5 FBS organic load, 30 seconds, 8.34 log inoculum, ppm chlorine
# [8] = Exp 2, 5 FBS organic load, 30 seconds, 8.37 log inoculum
# [9] = Exp 1, 5 FBS organic load, 30 seconds, 8.34 log inoculum
compound,measurement,setting,value
"OCl [HOCl, hypochlorous acid]",chlorine loss (in words),"[1]; HOCl series, 10 week period",lowest chlorine loss
same,available chlorine,"[1]; HOCl series, Day 0",707 mg/L
same,available chlorine,"[1]; HOCl series, W 0",727 mg/L
same,available chlorine,"[1]; HOCl series, W 4",687 mg/L
same,available chlorine,"[1]; HOCl series, W 6",637 mg/L
same,available chlorine,"[1]; HOCl series, W 10",607 mg/L
same,available chlorine,"[1]; NaOCl series, Day 0",1443
same,available chlorine,"[1]; NaOCl series, W 1",1447
same,available chlorine,"[1]; NaOCl series, W 3",1443
same,available chlorine,"[1]; NaOCl series, W 6",1520
same,available chlorine,"[1]; NaOCl series, W 10",1537
same,pH over time (in words),[2],stable pH
same,MIC value,[3]; [6],150 ppm
same,MIC value,"[3]; 10% FBS, 1 min",300 ppm
same,MIC value,"[3]; 10% FBS, 5 min",100 ppm
same,MIC value,"[3]; 15% FBS, 1 min",300 ppm
same,MIC value,"[3]; 15% FBS, 5 min",200 ppm
same,MIC value,[3]; [7],150 ppm
same,MIC value,[3]; [8],100 ppm
same,MBC value,[4]; [6],150 ppm
same,MBC value,"[4]; 10% FBS, 1 min",300 ppm
same,MBC value,"[4]; 10% FBS, 5 min",200 ppm
same,MBC value,"[4]; 15% FBS, 1 min",300 ppm
same,MBC value,"[4]; 15% FBS, 5 min",300 ppm
same,MBC value,[4]; [9],150 ppm
same,MBC value,[4]; [8],100 ppm
same,Estimated residual Cl (%),"[5]; 1 mL deposited, Day 1",0.1%
same,Estimated residual Cl (%),[5]; Day 2,0.2%
same,Estimated residual Cl (%),[5]; Day 3,0.3%
same,Estimated residual Cl (%),[5]; Day 7,0.1%
same,Estimated residual Cl (%),[5]; Day 28,0.2%
same,residual chlorine density (in words),"[5]; SS304 coupons, Day 1",no residual chlorine density
"O=c1nc([O-])n(Cl)c(=O)n1Cl.[Na+] [NaDCC, sodium dichloroisocyanurate]",available chlorine over time (in words),"[1]; NaDCC series, 6-week time period",low available chlorine levels
same,available chlorine,"[1]; NaDCC series, Day 0",1120
same,available chlorine,"[1]; NaDCC series, W 1",967
same,available chlorine,"[1]; NaDCC series, W 3",753
same,available chlorine,"[1]; NaDCC series, W 6",530
same,available chlorine,"[1]; NaDCC series, W 10",330
same,MIC value,[3]; [6],100 ppm
same,MIC value,"[3]; 10% FBS, 1 min",200 ppm
same,MIC value,"[3]; 10% FBS, 5 min",200 ppm
same,MIC value,"[3]; 15% FBS, 1 min",300 ppm
same,MIC value,"[3]; 15% FBS, 5 min",200 ppm
same,MIC value,[3]; [7],150 ppm
same,MIC value,[3]; [8],100 ppm
same,MBC value,[4]; [6],150 ppm
same,MBC value,"[4]; 10% FBS, 1 min",200 ppm
same,MBC value,"[4]; 10% FBS, 5 min",200 ppm
same,MBC value,"[4]; 15% FBS, 1 min",300 ppm
same,MBC value,"[4]; 15% FBS, 5 min",200 ppm
same,MBC value,[4]; [9],150 ppm
same,MBC value,[4]; [8],150 ppm
"OCl [NaOCl, sodium hypochlorite]",chlorine levels and pH over time (in words),[1]; NaOCl series,no chlorine loss and no change in pH
same,MIC,[3]; [6],200 µg/mL
same,MIC,"[3]; 1 min, 10% FBS",400 µg/mL
same,MIC,"[3]; 1 min, 15% FBS",500 µg/mL
same,MIC,"[3]; 5 min, 10% FBS",100 µg/mL
same,MIC,"[3]; 5 min, 15% FBS",100 µg/mL
same,MIC,[3]; [7],100 µg/mL
same,MIC,[3]; [8],100 µg/mL
same,MBC value,[4]; [8],250 ppm
same,MBC,[4]; [6],200 µg/mL
same,MBC,"[4]; 1 min, 10% FBS",400 µg/mL
same,MBC,"[4]; 1 min, 15% FBS",500 µg/mL
same,MBC,"[4]; 5 min, 10% FBS",200 µg/mL
same,MBC,"[4]; 5 min, 15% FBS",400 µg/mL
same,MBC,[4]; [9],200 µg/mL
